16 compounds from patent US8778972B2, “5-pyridin-3-yl-1, 3-dihydro-indol-2-on derivatives and their use as modulators of aldosterone synthase and/or CYP11B1” (Novartis AG, priority 2009, dated 2014) can be followed below.

One assay has as its target T1, CYP11B1 (Homo sapiens, UniProt P15538).
T1 construct: the NCI-H295R cells have Cyp11 B1 (steroid 11 β-hydroxylase); host or cells: NCI-H295R
T1 sequence (P15538 25-503): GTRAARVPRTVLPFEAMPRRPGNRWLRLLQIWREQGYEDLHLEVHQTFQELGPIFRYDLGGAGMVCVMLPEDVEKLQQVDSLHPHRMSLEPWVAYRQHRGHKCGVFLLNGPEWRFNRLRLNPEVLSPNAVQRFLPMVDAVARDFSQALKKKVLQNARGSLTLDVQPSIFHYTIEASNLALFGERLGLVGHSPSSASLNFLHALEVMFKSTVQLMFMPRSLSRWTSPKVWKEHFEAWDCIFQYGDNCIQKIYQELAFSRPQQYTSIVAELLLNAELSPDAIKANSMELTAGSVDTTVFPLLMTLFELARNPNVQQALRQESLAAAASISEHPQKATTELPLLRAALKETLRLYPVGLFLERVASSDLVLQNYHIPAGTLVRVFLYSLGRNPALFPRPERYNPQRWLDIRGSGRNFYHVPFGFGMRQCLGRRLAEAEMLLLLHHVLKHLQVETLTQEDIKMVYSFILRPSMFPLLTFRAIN
Nature of the assay: Cortisol cell secretion in NCI-H295R cells (CYP11B1 activity). The format is cell-based. The settings on record: for inhibition at 1 µM: read-out: Cortisol cell secretion (% Inhib. @ 1 μM). The text has this: The in vitro inhibitory activities for CYP11B1 can be determined by the following assay.
The cell line NCI-11295R was originally isolated from an adrenocortical carcinoma and has been characterized in the literature through the stimulable secretion of steroid hormones and the presence of the enzymes essential for steroidogenesis. Thus, the NCI-H295R cells have Cyp11 B1 (steroid 11 β-hydroxylase). The cells show the physiological property of zonally undifferentiated human foetal adrenocortical cells which, however, have the capacity to produce the steroid hormones which are formed in the three, phenotypically distinguishable zones in the adult adrenal cortex.
The NCI-H295R cells (American Type Culture Collection, ATCC, Rockville, Md., USA) are grown in Dulbeoco's Modified Eagle' Ham F-12 Medium (DME/F12), which has been supplemented with Ulroser SF Serum (Soprachem, Cergy-Saint-Christophe, France), insulin, transferrin, selenite (I-T-S, Becton Dickinson Biosciences, Franklin lakes, N.J., USA) and antibiotics in 75 cm^2 cell culture vessels at 37° C. and in a 95% air-5% carbon dioxide atmosphere. The cells are subsequently transferred for colony formation into a 24-well incubation vessel. They are cultivated there in DME/F12 medium, which is now supplemented with 0.1% bovine serum instead of Ultroser SF for 24 hours. The experiment is initiated by cultivating the cells in DME/F12 medium which is supplemented with 0.1% bovine serum albumin and test compound, in the presence or absence of cell stimulants, for 72 hours. The test substance is added in a concentration range from 0.2 nanomolar to 20 millimolar. Cell stimulants which can be used are angiotensin II ([…] or 100 nanomolar), potassium ions (16 millimolar), forskolin (10 micromolar) or a combination of two stimulants.
The excretion of aldosterone, cortisol, corticosterone and estradiol/estrone into the culture medium can be detected and quantified by commercially available, specific monoclonal antibodies in radioimmunoassays in accordance with the manufacturer's instructions.
(§1) Inhibition of the release of certain steroids can be used as a measure of the respective enzyme inhibition by the added test compounds. The dose-dependent inhibition of enzymic activity by a compound is calculated by means of an inhibition plot which is characterized by an IC50.
The inhibition activity of cortisol production (CYP11B1 activity) can also be expressed in percentage inhibition (% inhibition) at a given concentration (e.g. % inhibition at 1 μM), which is the cortisol level when cell is treated with the given concentration of a compound of the invention (e.g. concentration of 1 versus the cortisol excretion when cell is free of the compound of the invention: % inhibition cortisol production=[(Y′−X′)/Y′]×100 wherein X′ is the level of cortisol when the cell is treated with a compound of Formula I; and Y′ is the level of cortisol when the cell is free of compound of Formula

For another assay, the target named is T2, aldosterone synthase (Homo sapiens, UniProt P19099).
T2 construct: host or cells: NCI-H295R
T2 sequence (P19099 25-503): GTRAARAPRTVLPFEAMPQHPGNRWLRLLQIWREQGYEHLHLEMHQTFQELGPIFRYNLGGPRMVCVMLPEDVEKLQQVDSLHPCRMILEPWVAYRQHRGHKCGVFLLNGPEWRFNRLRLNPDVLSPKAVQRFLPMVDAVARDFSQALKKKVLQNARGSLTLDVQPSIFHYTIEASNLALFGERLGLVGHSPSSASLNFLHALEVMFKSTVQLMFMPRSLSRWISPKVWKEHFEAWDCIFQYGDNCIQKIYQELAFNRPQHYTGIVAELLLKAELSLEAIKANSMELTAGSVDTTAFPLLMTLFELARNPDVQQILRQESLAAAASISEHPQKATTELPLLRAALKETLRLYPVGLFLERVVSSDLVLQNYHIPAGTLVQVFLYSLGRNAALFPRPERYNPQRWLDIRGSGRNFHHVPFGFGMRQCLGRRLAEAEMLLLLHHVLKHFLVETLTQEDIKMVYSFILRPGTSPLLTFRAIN
The assay is described as follows: Aldosterone cell secretion in NCI-H295R cells (Ang II stimulated, SPA). The format is cell-based.
Source text: In particular, the aldosterone synthase inhibitory activities in vitro can be determined by the following assay.
Human adrenocortical carcinoma NCI-H295R cell line was obtained from American Type Culture Collection (Manassas, Va.). Insulin/transferrin/selenium (ITS)-A supplement (100×), DMEM/F-12, antibiotic/antimycotic (100×), and fetal bovine serum (FBS) were purchased from Invitrogen (Carlsbad, Calif.). Anti-mouse PVT scintillation proximity assay (SPA) beads and NBS 96-well plates were obtained from GE Health Sciences (Piscataway, N.J.) and Corning (Acton, Mass.), respectively. Solid black 96-well flat bottom plates were purchased from Costar (Corning, N.Y.). Aldosterone and angiotensin (Ang II) were purchased from Sigma (St. Louis, Mo.). D[1,2,6,7-^3H(N)]aldosterone was acquired from PerkinElmer (Boston, Mass.). Nu-serum was a product of BD Biosciences (Franklin Lakes, N.J.).
For in vitro measurement of aldosterone activity, human adrenocortical carcinoma NCI-H295R cells are seeded in NBS 96-well plates at a density of 25,000 cells/well in 100 μl of a growth medium containing DMEM/F12 supplemented with 10% FCS, 2.5% Nu-serum, 1 μg ITS/ml, and 1× antibiotic/antimycotic. The medium is changed after culturing for 3 days at 37° C. under an atmosphere of 5% CO2/95% air. On the following day, cells are rinsed with 100 μl of phosphate-buffered saline (PBS) and incubated with 100 μl of treatment medium containing 1 μM Ang II and a compound at different concentrations in quadruplicate wells at 37° C. for 24 hr. At the end of incubation, 50 μl of medium is withdrawn from each well for measurement of aldosterone production by an SPA using mouse anti-aldosterone monoclonal antibodies.
Measurement of aldosterone activity can also be performed using a 96-well plate format. Each test sample is incubated with 0.02 μCi of D-[1,2,6,7-^3H(N)]aldosterone and 0.3 μg of anti-aldosterone antibody in PBS containing 0.1% Triton X-100, 0.1% bovine serum albumin, and 12% glycerol in a total volume of 200 μl at room temperature for 1 hr. Anti-mouse PVT SPA beads (50 μl) are then added to each well and incubated overnight at room temperature prior to counting in a Microbeta plate counter. The amount of aldosterone in each sample is calculated by comparing with a standard curve generated using known quantities of the hormone.
as §1
The IC50 values for active test compounds are ascertained by a simple linear regression analysis in order to construct inhibition plots without data weighting. The inhibition plot is calculated by fitting a 4-parameter logistic function to the raw data points using the least squares method. The equation of the 4-parameter logistic function is calculated as follows: Y=(d−a)/((1+(x/c)b))+a, where: a=minimum data level, b gradient, I c=ICED, d=maximum data level, x=inhibitor concentration.
The inhibition activity of aldosterone production can also be expressed in percentage inhibition (% inhibition) at a given concentration (e.g. % inhibition at 1 μM), which is the aldosterone level when the cell is treated with the given concentration of a compound of this invention (e.g. concentration of 1 μM) versus the aldosterone excretion when cell is free of the compound of the invention: % inhibition aldosterone production=[(Y′−X′)/Y′]×100 wherein X′ is the level of aldosterone when the cell is treated with a compound of Formula I and Y′ is the level of aldosterone when the cell is free of compound of Formula I.

Turning to `CC(C)C(=O)Nc1cncc(-c2ccc3c(c2)CC(=O)N3C)c1` [Example 9, N-[5-(1-Methyl-2-oxo-2,3-dihydro-1H-indol-5-yl)-pyridin-3-yl]-isobutyramide], the “Cortisol cell secretion (% Inhib. @ 1 μM)” value on CYP11B1 was found to be 89%. This compound also showed an IC50 against aldosterone synthase of 15 nM.
Taken in the same sequence, the figures for “1-Methyl-5-(5-methyl-pyridin-3-yl)-1,3-dihydro-indol-2-one [Example 1]” were 29.5% and 91.5 nM.
In the case of `CCOc1cncc(-c2ccc3c(c2)CC(=O)N3C)c1` [Example 13], the inhibition at 1 µM on CYP11B1 came to 83.5%. Further, the IC50 at aldosterone synthase was determined as 20 nM.
Taken in the same sequence, the figures for `CN1C(=O)Cc2cc(-c3cncc(-c4cccnc4)c3)ccc21` [Example 14] were 60% and 18 nM.
Take “5-(4-Ethyl-pyridin-3-yl)-1-methyl-1,3-dihydro-indol-2-one [Example 6]”: the “Cortisol cell secretion (% Inhib. @ 1 μM)” value on CYP11B1 worked out at 83%. The compound further yielded an IC50 at aldosterone synthase of 11 nM.
On aldosterone synthase, `Cn1c(=O)n(C)c2cc(-c3cccnc3)ccc21` [Example 18] showed an IC50 of 408 nM.
On to `CN1C(=O)Cc2cc(-c3cncc(F)c3)ccc21` [Example 2, 5-(5-Fluoro-pyridin-3-yl)-1-methyl-1,3-dihydro-indol-2-one], for which, on CYP11B1, the “Cortisol cell secretion (% Inhib. @ 1 μM)” value came to 83%. At aldosterone synthase, this compound returned an IC50 of 5 nM.
Regarding “1-Isopropyl-3-[5-(1-methyl-2-oxo-2,3-dihydro-1H-indol-5-yl)-pyridin-3-ylmethyl]-urea [Example 15]”, on CYP11B1, the “Cortisol cell secretion (% Inhib. @ 1 μM)” value was determined as 82%. The same compound gave an IC50 on aldosterone synthase of 172 nM.
As to `CN1C(=O)Cc2c1ccc(-c1cccnc1)c2Cl` [Example 4], the inhibition at 1 µM on CYP11B1 is 85.5%. This compound returned an IC50 on aldosterone synthase of 10 nM.
For `CN1C(=O)Cc2cc(-c3cncc(C4CC4)c3)ccc21` [Example 12], the inhibition at 1 µM at CYP11B1 is 79%. Moreover, the IC50 at aldosterone synthase turned out to be 2 nM.
In the case of `Cn1c(=O)oc2cc(-c3cccnc3)ccc21` [Example 19], at aldosterone synthase, the IC50 was found to be 472 nM.
On to “5-(5-Ethoxy-pyridin-3-yl)-1-methyl-1,3-dihydro-indol-2-one [#13]”, for which the “Cortisol cell secretion (% Inhib. @ 1 μM)” value on CYP11B1 came to 51%. Besides, on aldosterone synthase, half-maximal inhibition (IC50) was put at 18 nM.
As to `COc1c(-c2cccnc2)ccc2c1CC(=O)N2C` [Example 8], the inhibition at 1 µM on CYP11B1 was 84%. Moreover, at aldosterone synthase, half-maximal inhibition (IC50) required 36 nM.
The like results for `Cc1c(-c2cncc(Br)c2)ccc2c1CC(=O)N2C` [Example 10] were, in that order, 93% and 4 nM.
For `CN1C(=O)Cc2cc(-c3cncc(C(N)=O)c3)ccc21` [Example 5, 5-(1-Methyl-2-oxo-2,3-dihydro-1H-indol-5-yl)-nicotinamide], the “Cortisol cell secretion (% Inhib. @ 1 μM)” value at CYP11B1 is given as 78%. 58 nM corresponded to half-maximal inhibition against aldosterone synthase (IC50).
Taken in the same sequence, the figures for “5-[5-(1-Hydroxy-1-methyl-ethyl)-pyridin-3-yl]-1-methyl-1,3-dihydro-indol-2-one [Example 16]” were 87% and 14 nM.
